Data: the supplement of paper PMC10307832

Assays:
Test in all cases: relative viability (nuclei count vs DMSO), 5 days (fraction); higher = more cells survive
[1] = compound: C=CCNC1=C2C[C@@H](C)C[C@H](OC)[C@H](O)[C@@H](C)/C=C(\C)[C@H](OC(N)=O)[C@@H](OC)/C=C\C=C(/C)C(=O)NC(=CC1=O)C2=O [17-AAG] + Nc1nc2[nH]cc(CCc3ccc(C(=O)N[C@@H](CCC(=O)O)C(=O)O)cc3)c2c(=O)[nH]1 [Pemetrexed] (partner 0.2 µM)
Procedure, shortened: (§1)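 Cells from lung cancer lines were seeded into 1536-well plates and, one day later, dosed by pin tool. Treatments were either a single drug or a fixed dose of an anchor drug with five library-drug doses (not always all listed) in √10 steps. After 5 days, nuclei were stained in a one-step fixation (final 0.05% Triton X-100, 1% formaldehyde, 1 ug/ml Hoechst) and counted on 4× images, and relative viability is the treated-to-vehicle nuclei ratio, as the median of duplicate plates.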

[2] = compound: C=CCNC1=C2C[C@@H](C)C[C@H](OC)[C@H](O)[C@@H](C)/C=C(\C)[C@H](OC(N)=O)[C@@H](OC)/C=C\C=C(/C)C(=O)NC(=CC1=O)C2=O [17-AAG] + NC(=O)Nc1cc(-c2cccc(F)c2)sc1C(=O)N[C@H]1CCCNC1 [AZD7762] (partner 0.2 µM)
Procedure, shortened: as §1

[3] = compound: C=CCNC1=C2C[C@@H](C)C[C@H](OC)[C@H](O)[C@@H](C)/C=C(\C)[C@H](OC(N)=O)[C@@H](OC)/C=C\C=C(/C)C(=O)NC(=CC1=O)C2=O [17-AAG] + COc1cccc2cc(-c3nc([C@H]4CC[C@H](C(=O)O)CC4)n4ncnc(N)c34)[nH]c12 [OSI-027] (partner 0.5 µM)
Procedure, shortened: as §1

[4] = compound: C=CCNC1=C2C[C@@H](C)C[C@H](OC)[C@H](O)[C@@H](C)/C=C(\C)[C@H](OC(N)=O)[C@@H](OC)/C=C\C=C(/C)C(=O)NC(=CC1=O)C2=O [17-AAG] + COc1cc2c(Oc3ccc(NC(=O)C4(C(=O)Nc5ccc(F)cc5)CC4)cc3F)ccnc2cc1OCCCN1CCOCC1 [Foretinib] (partner 0.25 µM)
Procedure, shortened: as §1

Row | Cell Line | relative viability ([1]; first compound 0.00128 µM) | relative viability ([1]; first compound 0.004048 µM) | relative viability ([1]; first compound 0.0128 µM) | relative viability ([1]; first compound 0.04048 µM) | relative viability ([1]; first compound 0.128 µM) | relative viability ([2]; first compound 0.00128 µM) | relative viability ([2]; first compound 0.004048 µM) | relative viability ([2]; first compound 0.0128 µM) | relative viability ([2]; first compound 0.04048 µM) | relative viability ([2]; first compound 0.128 µM) | relative viability ([3]; first compound 0.00128 µM) | relative viability ([3]; first compound 0.004048 µM) | relative viability ([3]; first compound 0.0128 µM) | relative viability ([3]; first compound 0.04048 µM) | relative viability ([3]; first compound 0.128 µM) | relative viability ([4]; first compound 0.00128 µM) | relative viability ([4]; first compound 0.004048 µM) | relative viability ([4]; first compound 0.0128 µM) | relative viability ([4]; first compound 0.04048 µM) | relative viability ([4]; first compound 0.128 µM)
1 | NCI-H3122 | 0.198 | 0.191 | 0.127 | 0.122 | 0.11 | 0.93 | 0.873 | 0.214 | 0.161 | 0.108 | 0.713 | 0.169 | 0.126 | 0.12 | 0.114 | 0.961 | 0.934 | 0.138 | 0.076 | 0.098
2 | HCC-15 | 0.23 | 0.236 | 0.216 | 0.144 | 0.138 | 1.29 | 1.27 | 0.986 | 0.461 | 0.158 | 0.628 | 0.54 | 0.179 | 0.107 | 0.106 | 0.907 | 0.718 | 0.29 | 0.137 | 0.12
3 | RERF-LC-KJ | 0.47 | 0.514 | 0.33 | 0.255 | 0.219 | 1 | 1.16 | 0.859 | 0.229 | 0.118 | 0.62 | 0.637 | 0.231 | 0.268 | 0.22 | 0.883 | 0.951 | 0.974 | 0.346 | 0.296
4 | NCI-H1944 | 0.601 | 0.561 | 0.357 | 0.266 | 0.131 | 0.497 | 0.488 | 0.237 | 0.155 | 0.138 | 0.406 | 0.403 | 0.321 | 0.184 | 0.164 | 0.974 | 0.896 | 0.735 | 0.216 | 0.175
5 | HARA | 0.256 | 0.257 | 0.29 | 0.198 | 0.147 | 0.425 | 0.295 | 0.209 | 0.251 | 0.18 | 0.503 | 0.56 | 0.489 | 0.151 | 0.0613 | 0.884 | 0.911 | 0.865 | 0.792 | 0.455
6 | NCI-H2126 | 0.689 | 0.749 | 0.746 | 0.257 | 0.258 | 0.977 | 0.975 | 0.885 | 0.265 | 0.231 | 0.778 | 0.758 | 0.479 | 0.231 | 0.291 | 1.29 | 1.19 | 1.05 | 0.908 | 0.236
7 | LXF-289 | 0.889 | 0.874 | 0.575 | 0.201 | 0.0927 | 1.09 | 1.1 | 0.617 | 0.151 | 0.0926 | 0.823 | 0.779 | 0.53 | 0.104 | 0.0657 | 1.05 | 0.961 | 0.879 | 0.381 | 0.152
8 | NCI-H1395 | 0.86 | 0.938 | 0.494 | 0.349 | 0.354 | 0.415 | 0.431 | 0.395 | 0.34 | 0.337 | 0.634 | 0.619 | 0.467 | 0.377 | 0.277 | 0.963 | 0.988 | 0.843 | 0.396 | 0.318
9 | NCI-H2170 | 0.256 | 0.27 | 0.262 | 0.152 | 0.139 | 0.832 | 0.734 | 0.305 | 0.126 | 0.128 | 0.652 | 0.585 | 0.385 | 0.187 | 0.118 | 0.961 | 1.01 | 0.955 | 0.607 | 0.328
